This is an account of results in US20120149766A1, “DIETARY AND PHARMACEUTICAL COMPOSITIONS COMPRISING A SAGE EXTRACT CONTAINING A MIXTURE OF TRICYCLIC […] THEIR DERIVATIVES AND THEIR USES” (DSM IP ASSETS B.V., priority 2006, published 2012).

Structures are written as SMILES. Where two headings read alike, the source gives them in different places.

For series [1], the system named is mouse. The note with it: for Number of marbles covered by sawdust, mean ± s.e.m.: 30-min test. Here is the method: Mice (n=15 per treatment group) were individually placed in transparent plastic cages (33×21×18 cm) with 5 cm of sawdust on the floor and 25 marbles (diameter 1 cm) grouped in the centre of the cage. A second, up-turned, cage served as a lid. The number of marbles covered by sawdust (by at least two-thirds) was counted at the end of the 30-min test period. Tests were performed by investigators blind to the drug treatment protocol.
Prior to testing, all test cages and marbles were “impregnated” by leaving 10 naive mice in each cage for 15 minutes.
Sage extract B (30, 100, 300 mg/kg, p.o., 24, 5 and 1 h prior to the test) was thus investigated in the marble burying test to evaluate its potential anxiolytic effects in the mouse. Clobazam, fluoxetine and venlafaxine were used as reference compounds.

Series [2] concerns mouse. As to the kind of experiment: Light-dark box test in the mouse. It counts as in vivo. An excerpt: The method, which detects anxiolytic activity, follows that described by Crawley (1981, Pharmacol. Biochem. Behav., 15:695-699). Anxiolytics increase the time spent in the light compartment.
Animals were placed in the light compartment of a two-compartment box with one half light and open (25×27×27 cm) and the other half dark and closed (20×27×27 cm). The time spent in each compartment as well as the number of times the animal crossed from one side to the other was scored during a 3-min test. 15 mice were studied per group. The test was performed blind.
Clobazam (32 mg/kg p.o., dispersed in 0.2% w/v hydroxypropylmethyl cellulose in distilled water), administered 1 h before the test, was used as reference substance. Mice in this group received additional administrations of vehicle at 24 h and 5 h before the test in order to maintain experimental blinding.

The mark [3] stands for this setting: 10 mg/kg p.o. −24 h, −5 h and −1 h.
Setting [4] is: 24 mg/kg p.o. −24 h, −5 h and −1 h.
Where [5] appears, read: 32 mg/kg p.o. −1 h (vehicle at −24 h and −5 h).
The mark [6] stands for this setting: 32 mg/kg p.o. −1 h (vehicle at −24 h, −5 h).
Where [7] appears, read: 32 mg/kg p.o. −1 h (vehicle at −24 h, −5 h), 3-min test.

Take `CNCCC(Oc1ccc(C(F)(F)F)cc1)c1ccccc1` (stereo not shown) [Fluoxetine, fluoxetine]: in series [1] (setting [3]), the “Number of marbles covered by sawdust, % change from control” value is −58% and the “Number of marbles covered by sawdust, mean ± s.e.m.” value (“Number … by sawdust, mean ± s.e.m.” for short) worked out at 7.6 ± 1.6.

Consider `COc1ccc(C(CN(C)C)C2(O)CCCCC2)cc1` (stereo not shown) [Venlafaxine, venlafaxine], for which, in series [1] (setting [4]), the “Number of marbles covered by sawdust, % change from control” value is −47% and the “Number … by sawdust, mean ± s.e.m.” value came to 9.5 ± 1.8. In series [1] (24 mg/kg p.o., mouse), the “Dead after the first administration (animals/group)” value was “#dead after the first administration ( 1/15) and after the second administration ( 1/15)”; the “Dead after the second administration (animals/group)” value was “#dead after the first administration ( 1/15) and after the second administration ( 1/15)”.

Turning to `CN1C(=O)CC(=O)N(c2ccccc2)c2cc(Cl)ccc21` [Clobazam, clobazam], in series [1] (setting [5]), the “Number of marbles covered by sawdust, % change from control” value is −84% and the “Number … by sawdust, mean ± s.e.m.” value is 2.9 ± 1.2. In series [2] (setting [6]), the “Number of crossings, % change from control” value is on record as “+6%” and the “Time spent in light compartment, % change from control” value is reported as “+75%”. Moreover, in series [2] (setting [7]), the “Number of crossings, mean ± s.e.m.” value turned out to be 11.9 ± 1.8 NS and the “Time spent in light compartment, mean ± s.e.m.” value was 125.5 ± 6.4 s. Besides, the “Sedation (animals/group)” value in series [2] (32 mg/kg p.o., mouse) was 2/15.
